PubChem BioAssay AID1259407 (Chemical Carcinogenesis Research Information System (CCRIS), 2018)
The source made the active and inactive calls. The rule behind the calls is not given here.

Test system: CCRIS mutagenicity, Ames/micronucleus/aberration tests
Experiment: CCRIS mutagenicity studies
[1] = Test System: AMES SALMONELLA TYPHIMURIUM, Strain/Indicator: TA98, Metabolic Activation: NONE, Method: PREINCUBATION
[2] = Test System: AMES SALMONELLA TYPHIMURIUM, Strain/Indicator: TA100, Metabolic Activation: NONE, Method: PREINCUBATION

OCC(CO)(CO)CO
mutagenic call [1]: inactive; negative | mutagenic call (Test System: AMES SALMONELLA TYPHIMURIUM, Strain/Indicator: TA98, Metabolic Activation: RAT, LIVER, S-9, KC 500, Method: PREINCUBATION): inactive; negative | mutagenic call (Test System: AMES SALMONELLA TYPHIMURIUM, Strain/Indicator: TA98, Metabolic Activation: RAT, LIVER, S-9, SODIUM PHENOBARBITAL AND 5,6-BENZOFLAVONE, Method: PREINCUBATION): inactive; negative | mutagenic call [2]: inactive; negative | mutagenic call (Test System: AMES SALMONELLA TYPHIMURIUM, Strain/Indicator: TA100, Metabolic Activation: RAT, LIVER, S-9, KC 500, Method: PREINCUBATION): inactive; negative | mutagenic call (Test System: AMES SALMONELLA TYPHIMURIUM, Strain/Indicator: TA100, Metabolic Activation: RAT, LIVER, S-9, SODIUM PHENOBARBITAL AND 5,6-BENZOFLAVONE, Method: PREINCUBATION): inactive; negative | mutagenic call (Test System: AMES SALMONELLA TYPHIMURIUM, Strain/Indicator: TA102, Metabolic Activation: NONE, Method: PREINCUBATION): inactive; negative | mutagenic call (Test System: AMES SALMONELLA TYPHIMURIUM, Strain/Indicator: TA102, Metabolic Activation: RAT, LIVER, S-9, SODIUM PHENOBARBITAL AND 5,6-BENZOFLAVONE, Method: PREINCUBATION): inactive; negative | mutagenic call (Test System: AMES SALMONELLA TYPHIMURIUM, Strain/Indicator: TA104, Metabolic Activation: NONE, Method: PREINCUBATION): inactive; negative | mutagenic call (Test System: AMES SALMONELLA TYPHIMURIUM, Strain/Indicator: TA104, Metabolic Activation: RAT, LIVER, S-9, SODIUM PHENOBARBITAL AND 5,6-BENZOFLAVONE, Method: PREINCUBATION): inactive; negative | mutagenic call (Test System: AMES SALMONELLA TYPHIMURIUM, Strain/Indicator: TA1535, Metabolic Activation: NONE, Method: PREINCUBATION): inactive; negative | mutagenic call (Test System: AMES SALMONELLA TYPHIMURIUM, Strain/Indicator: TA1535, Metabolic Activation: RAT, LIVER, S-9, KC 500, Method: PREINCUBATION): inactive; negative | mutagenic call (Test System: AMES SALMONELLA TYPHIMURIUM, Strain/Indicator: TA1535, Metabolic Activation: RAT, LIVER, S-9, SODIUM PHENOBARBITAL AND 5,6-BENZOFLAVONE, Method: PREINCUBATION): inactive; negative | mutagenic call (Test System: AMES SALMONELLA TYPHIMURIUM, Strain/Indicator: TA1537, Metabolic Activation: NONE, Method: PREINCUBATION): inactive; negative | mutagenic call (Test System: AMES SALMONELLA TYPHIMURIUM, Strain/Indicator: TA1537, Metabolic Activation: RAT, LIVER, S-9, KC 500, Method: PREINCUBATION): inactive; negative | mutagenic call (Test System: AMES SALMONELLA TYPHIMURIUM, Strain/Indicator: TA1537, Metabolic Activation: RAT, LIVER, S-9, SODIUM PHENOBARBITAL AND 5,6-BENZOFLAVONE, Method: PREINCUBATION): inactive; negative | mutagenic call (Test System: AMES SALMONELLA TYPHIMURIUM, Strain/Indicator: TA1538, Metabolic Activation: NONE, Method: PREINCUBATION): inactive; negative | mutagenic call (Test System: AMES SALMONELLA TYPHIMURIUM, Strain/Indicator: TA1538, Metabolic Activation: RAT, LIVER, S-9, KC 500, Method: PREINCUBATION): inactive; negative | mutagenic call (Test System: E. COLI, Strain/Indicator: WP2UVRA/PKM101, Metabolic Activation: NONE, Method: PREINCUBATION): inactive; negative | mutagenic call (Test System: E. COLI, Strain/Indicator: WP2UVRA/PKM101, Metabolic Activation: RAT, LIVER, S-9, SODIUM PHENOBARBITAL AND 5,6-BENZOFLAVONE, Method: PREINCUBATION): inactive; negative | mutagenic call (Test System: E. COLI, Strain/Indicator: WP2UVRA, Metabolic Activation: NONE, Method: PREINCUBATION): inactive; negative | mutagenic call (Test System: E. COLI, Strain/Indicator: WP2 UVRA, Metabolic Activation: RAT, LIVER, S-9, KC 500, Method: PREINCUBATION): inactive; negative | mutagenic call (Test System: E. COLI, Strain/Indicator: WP2UVRA, Metabolic Activation: RAT, LIVER, S-9, SODIUM PHENOBARBITAL AND 5,6-BENZOFLAVONE, Method: PREINCUBATION): inactive; negative

CCCCOc1ccc2nc3cc(Cl)ccc3c(NCCCN(CC)CCCl)c2n1
mutagenic call (Test System: AMES SALMONELLA TYPHIMURIUM, Strain/Indicator: TA98, Metabolic Activation: NONE, Method: STANDARD PLATE): active; positive | mutagenic call (Test System: AMES SALMONELLA TYPHIMURIUM, Strain/Indicator: TA100, Metabolic Activation: NONE, Method: STANDARD PLATE): inactive; negative | mutagenic call (Test System: AMES SALMONELLA TYPHIMURIUM, Strain/Indicator: TA1535, Metabolic Activation: NONE, Method: STANDARD PLATE): inactive; negative | mutagenic call (Test System: AMES SALMONELLA TYPHIMURIUM, Strain/Indicator: TA1536, Metabolic Activation: NONE, Method: STANDARD PLATE): active; positive | mutagenic call (Test System: AMES SALMONELLA TYPHIMURIUM, Strain/Indicator: TA1537, Metabolic Activation: NONE, Method: STANDARD PLATE): active; positive | mutagenic call (Test System: AMES SALMONELLA TYPHIMURIUM, Strain/Indicator: TA1538, Metabolic Activation: NONE, Method: STANDARD PLATE): active; positive

C1CCNC1
mutagenic call [1]: inactive; negative | mutagenic call (Test System: AMES SALMONELLA TYPHIMURIUM, Strain/Indicator: TA98, Metabolic Activation: RAT, LIVER, S-9, PCB, Method: PREINCUBATION): inactive; negative | mutagenic call [2]: inactive; negative | mutagenic call (Test System: AMES SALMONELLA TYPHIMURIUM, Strain/Indicator: TA100, Metabolic Activation: RAT, LIVER, S-9, PCB, Method: PREINCUBATION): inactive; negative

COc1ccc(Cc2cnc(N)nc2N)cc1OC
mutagenic call (Test System: AMES SALMONELLA TYPHIMURIUM, Strain/Indicator: TA98, Metabolic Activation: HAMSTER, LIVER, S-9, PHENOBARBITAL AND BETA-NAPHTHOFLAVONE, Method: PREINCUBATION): inactive; negative | mutagenic call [1]: inactive; negative | mutagenic call (Test System: AMES SALMONELLA TYPHIMURIUM, Strain/Indicator: TA98, Metabolic Activation: RAT, LIVER, S-9, PHENOBARBITAL AND BETA-NAPHTHOFLAVONE, Method: PREINCUBATION): inactive; negative | mutagenic call (Test System: AMES SALMONELLA TYPHIMURIUM, Strain/Indicator: TA100, Metabolic Activation: HAMSTER, LIVER, S-9, PHENOBARBITAL AND BETA-NAPHTHOFLAVONE, Method: PREINCUBATION): active; positive | mutagenic call [2]: inactive; negative | mutagenic call (Test System: AMES SALMONELLA TYPHIMURIUM, Strain/Indicator: TA100, Metabolic Activation: RAT, LIVER, S-9, PHENOBARBITAL AND BETA-NAPHTHOFLAVONE, Method: PREINCUBATION): inactive; negative | mutagenic call (Test System: E.COLI, Strain/Indicator: WP2UVRA/PKM101, Metabolic Activation: NONE, Method: PREINCUBATION): inactive; negative | mutagenic call (Test System: E.COLI, Strain/Indicator: WP2UVRA/PKM101, Metabolic Activation: RAT LIVER S-9, PHENOBARBITAL AND 5,6-BENZOFLAVONE, Method: PREINCUBATION): inactive; negative
